Assay results as given in patent US7285534B2, “Corticotropin-releasing hormone analogs and their uses” (The Regents of the University of California, priority 2002, dated 2007).
pEC50: −log10 of the molar value. “Also recorded” adds a separate entry of the source. Read-outs that look alike come from different tables or passages of the source. Residues, ends and D or L forms follow the SMILES beside them.

Experiments:
[1] = system: S91 mouse Cloudman cells (cell line M3); experiment: In vitro anti-proliferation assay, Cloudman melanoma cell counts; assay type: cell-based; conditions: for Anti-proliferative effect on Cloudman melanoma cells (in words): in vitro; for pEC50: Cloudman melanoma cells
Description: S91 mouse Cloudman cells (cell line M3) were obtained from the American Type Culture Collection. Hams F-10 medium, fetal bovine serum, and horse serum were obtained from Gibco BRL. Cloudman cells were cultured in Ham's F-10 medium supplemented with 5% horse serum, 2.5% fetal bovine serum, and 1% penicillin/streptomycin in a humidified incubator with 5% C02 at 37° C. Media were changed every second day.
Cells were plated at a concentration of ˜20,000 cells per well in Ham's F-10 medium supplemented with 5% horse serum, 2.5% fetal bovine serum and 1% penicillin/streptomycin into tissue-culture-12-well plates. Test peptides or sterile water containing 0.5% BSA (vehicle control) were added to culture medium prior to plating, and cells were allowed to adhere overnight in a humidified incubator with 5% CO2 at 37° C. Culture medium containing peptides and culture medium containing vehicle control were changed daily. For counting, cells were detached with 200 μL of 0.25% trypsin. Detachment levels were verified under a light microscope. After detachment, cell suspensions were transferred to 1.5-mL Eppendorf tubes, vigorously pipetted for uniform suspension, and cell number in 10 μL of cell suspension was counted in a hemacytometer under a light microscope.

[2] = Hypotensive activity relative to CRH; conditions: in vivo
[3] = system: W256 rat mammary carcinoma; conditions: 100 micrograms/kg subcutaneously twice a day for 3 days; cited from earlier work
[4] = system: W256 cells; conditions: cited from earlier work
[5] = Cloudman cells, relative to CRH
[6] = read-out: EC50 values for CRH peptides versus Cloudman melanoma

| Molecule | Anti-proliferative effect on Cloudman melanoma cells (in words) [1] | pEC50 [1, 6] | other results |
| --- | --- | --- | --- |
| acetyl-cyclo (30-33)[D-Phe^12, Nle^18, D-Glu^20, Nle^21, Glu^30, D-Ala^32]-urotensin 1(4-41) [Peptide V] | highly effective in suppressing proliferation | – | EC50 fold lower than that of CRH [1, 5]: 10 fold |
| CC[C@H](C)[C@H](NC(=O)[C@H](CO)NC(=O)[C@H](CC(C)C)NC(=O)[C@H](CO)NC(=O)[C@@H]1CCCN1C(=O)[C@H](CC(N)=O)NC(=O)[C@@H](N)CC(=O)O)C(=O)N[C@@H](CC(=O)O)C(=O)N[C@@H](CC(C)C)C(=O)N[C@H](C(=O)N[C@@H](Cc1ccccc1)C(=O)N[C@@H](Cc1c[nH]cn1)C(=O)N[C@@H](CC(C)C)C(=O)N[C@@H](CC(C)C)C(=O)N[C@@H](CCCNC(=N)N)C(=O)N[C@H](C(=O)N[C@@H](CC(C)C)C(=O)N[C@@H](CC(C)C)C(=O)N[C@@H](CCC(=O)O)C(=O)N[C@@H](CC(C)C)C(=O)N[C@@H](C)C(=O)N[C@@H](CCCNC(=N)N)C(=O)N[C@H](C(=O)N[C@@H](CCC(N)=O)C(=O)N[C@@H](CO)C(=O)N[C@@H](CCC(N)=O)C(=O)N[C@@H](CCCNC(=N)N)C(=O)N[C@@H](CCC(=O)O)C(=O)N[C@@H](CCCNC(=N)N)C(=O)N[C@@H](C)C(=O)N[C@@H](CCC(=O)O)C(=O)N[C@@H](CCC(N)=O)C(=O)N[C@@H](CC(N)=O)C(=O)N[C@@H](CCCNC(=N)N)C(=O)N[C@H](C(=O)N[C@H](C(=O)N[C@@H](Cc1ccccc1)C(=O)N[C@@H](CC(=O)O)C(=O)N[C@@H](CO)C(=O)N[C@H](C(N)=O)C(C)C)[C@@H](C)CC)[C@@H](C)CC)[C@@H](C)O)[C@@H](C)O)[C@@H](C)O [VI, Urocortin] (H-DNPSLSIDLTFHLLRTLLELARTQSQRERAEQNRIIFDSV-NH2) | highly effective in suppressing proliferation | 11.02 | – |
| CC[C@H](C)[C@H](NC(=O)[C@@H](NC(=O)[C@H](CC(=O)O)NC(=O)[C@H](CC(C)C)NC(=O)[C@H](CC(C)C)NC(=O)[C@H](CC(C)C)NC(=O)[C@H](CCCNC(=N)N)NC(=O)[C@H](CC(N)=O)NC(=O)[C@H](CC(N)=O)NC(=O)[C@H](C)NC(=O)[C@H](C)NC(=O)[C@H](CCC(N)=O)NC(=O)[C@H](CCC(N)=O)NC(=O)[C@H](CCCCN)NC(=O)[C@H](CCC(=O)O)NC(=O)[C@H](CCCCN)NC(=O)[C@H](CCC(=O)O)NC(=O)[C@H](CCC(N)=O)NC(=O)[C@H](CCCCN)NC(=O)[C@H](CCC(=O)O)NC(=O)[C@@H](NC(=O)[C@H](CCC(=O)O)NC(=O)[C@@H](NC(=O)[C@H](CCSC)NC(=O)[C@H](CCCCN)NC(=O)[C@H](CCCNC(=N)N)NC(=O)[C@H](CC(C)C)NC(=O)[C@H](CC(C)C)NC(=O)[C@H](CCC(=O)O)NC(=O)[C@H](CC(C)C)NC(=O)[C@H](CO)NC(=O)[C@H](CC(C)C)NC(=O)[C@H](CC(=O)O)NC(=O)[C@@H](NC(=O)[C@H](CO)NC(=O)[C@@H](NC(=O)[C@@H]1CCCN1C(=O)[C@@H]1CCCN1C(=O)CNC(=O)[C@@H]1CCC(=O)N1)[C@@H](C)CC)[C@@H](C)CC)[C@@H](C)CC)[C@@H](C)CC)[C@@H](C)O)C(N)=O [VII, Sauvagine] | highly effective in suppressing proliferation | 11.11 | – |
| CC[C@H](C)[C@H](NC(=O)[C@@H](NC(=O)[C@H](CCC(=O)O)NC(=O)[C@H](CCSC)NC(=O)[C@H](CC(C)C)NC(=O)[C@H](CCCCN)NC(=O)[C@H](CCCNC(=N)N)NC(=O)[C@H](CC(N)=O)NC(=O)[C@H](CO)NC(=O)[C@H](Cc1c[nH]cn1)NC(=O)[C@H](C)NC(=O)[C@H](CCC(N)=O)NC(=O)[C@H](CCC(N)=O)NC(=O)[C@H](C)NC(=O)[C@H](CC(C)C)NC(=O)[C@H](CCC(N)=O)NC(=O)[C@H](CCC(=O)O)NC(=O)[C@H](C)NC(=O)[C@H](CCCNC(=N)N)NC(=O)[C@H](C)NC(=O)[C@H](CCSC)NC(=O)[C@@H](CCC(=O)O)NC(=O)[C@H](CC(C)C)NC(=O)[C@@H](NC(=O)[C@H](CCC(=O)O)NC(=O)[C@H](CCCNC(=N)N)NC(=O)[C@H](CC(C)C)NC(=O)[C@H](CC(C)C)NC(=O)[C@H](Cc1c[nH]cn1)NC(=O)[C@H](Cc1ccccc1)NC(=O)[C@@H](NC(=O)[C@H](CC(C)C)NC(=O)[C@H](CC(=O)O)NC(=O)[C@H](CC(C)C)NC(=O)[C@H](CO)NC(=O)[C@@H](NC(=O)[C@@H]1CCCN1C(=O)[C@@H]1CCCN1C(=O)[C@H](CCC(=O)O)NC(=O)[C@H](CCC(=O)O)NC(=O)[C@@H](N)CO)[C@@H](C)CC)[C@@H](C)O)C(C)C)[C@@H](C)CC)C(N)=O [II, [D-Glu^20]-CRH] | retained; also recorded: significantly inhibit proliferation | 10.80 | Hypotensive activity relative to CRH [2]: diminished |
| α-helical-CRH(9-41) | – | – | Inhibition of the anti-proliferative effect of CRH peptides by the CRH receptor antagonist ([1]; Cloudman cells): inhibited |
| CC[C@H](C)[C@H](NC(=O)[C@@H](NC(=O)[C@H](CCC(=O)O)NC(=O)[C@H](CCSC)NC(=O)[C@H](CC(C)C)NC(=O)[C@H](CCCCN)NC(=O)[C@H](CCCNC(=N)N)NC(=O)[C@H](CC(N)=O)NC(=O)[C@H](CO)NC(=O)[C@H](Cc1c[nH]cn1)NC(=O)[C@H](C)NC(=O)[C@H](CCC(N)=O)NC(=O)[C@H](CCC(N)=O)NC(=O)[C@H](C)NC(=O)[C@H](CC(C)C)NC(=O)[C@H](CCC(N)=O)NC(=O)[C@H](CCC(=O)O)NC(=O)[C@H](C)NC(=O)[C@H](CCCNC(=N)N)NC(=O)[C@H](C)NC(=O)[C@H](CCSC)NC(=O)[C@H](CCC(=O)O)NC(=O)[C@H](CC(C)C)NC(=O)[C@@H](NC(=O)[C@H](CCC(=O)O)NC(=O)[C@H](CCCNC(=N)N)NC(=O)[C@H](CC(C)C)NC(=O)[C@H](CC(C)C)NC(=O)[C@H](Cc1c[nH]cn1)NC(=O)[C@H](Cc1ccccc1)NC(=O)[C@@H](NC(=O)[C@H](CC(C)C)NC(=O)[C@H](CC(=O)O)NC(=O)[C@H](CC(C)C)NC(=O)[C@H](CO)NC(=O)[C@@H](NC(=O)[C@@H]1CCCN1C(=O)[C@@H]1CCCN1C(=O)[C@H](CCC(=O)O)NC(=O)[C@H](CCC(=O)O)NC(=O)[C@@H](N)CO)[C@@H](C)CC)[C@@H](C)O)C(C)C)[C@@H](C)CC)C(N)=O [Peptide I, CRH] | Significant anti-proliferative effects | 11.07 | Inhibition of growth of intracerebrally-injected W256 tumor cells [3]: significant inhibition of growth; Antiproliferative effects in in vitro cultures of W256 cells [4]: exhibited antiproliferative effects; Time of maximum suppression of proliferation after treatment ([1]; Cloudman cells): about 96 hr; pEC50 ([1]; 96 hr, read-out: EC50 of CRH after 96 hr): 11.05 |
| CC[C@H](C)[C@H](NC(=O)[C@@H](NC(=O)[C@H](CCC(=O)O)NC(=O)[C@H](CCSC)NC(=O)[C@H](CC(C)C)NC(=O)[C@H](CCCCN)NC(=O)[C@H](CCCNC(=N)N)NC(=O)[C@H](CC(N)=O)NC(=O)[C@H](CO)NC(=O)[C@H](Cc1c[nH]cn1)NC(=O)[C@H](C)NC(=O)[C@H](CCC(N)=O)NC(=O)[C@H](CCC(N)=O)NC(=O)[C@H](C)NC(=O)[C@H](CC(C)C)NC(=O)[C@H](CCC(N)=O)NC(=O)[C@H](CCC(=O)O)NC(=O)[C@H](C)NC(=O)[C@H](CCCNC(=N)N)NC(=O)[C@H](C)NC(=O)[C@H](CCSC)NC(=O)[C@H](CCC(=O)O)NC(=O)[C@H](CC(C)C)NC(=O)[C@@H](NC(=O)[C@H](CCC(=O)O)NC(=O)[C@H](CCCNC(=N)N)NC(=O)[C@H](CC(C)C)NC(=O)[C@H](CC(C)C)NC(=O)[C@H](Cc1c[nH]cn1)NC(=O)[C@H](Cc1ccccc1)NC(=O)[C@@H](NC(=O)[C@H](CC(C)C)NC(=O)[C@H](CC(=O)O)NC(=O)[C@H](CC(C)C)NC(=O)[C@H](CO)NC(=O)[C@@H](NC(=O)[C@H]1CCCN1C(=O)[C@@H]1CCCN1C(=O)[C@H](CCC(=O)O)NC(=O)[C@H](CCC(=O)O)NC(=O)[C@@H](N)CO)[C@@H](C)CC)[C@@H](C)O)C(C)C)[C@@H](C)CC)C(N)=O [III, [D-Pro^5]-CRH] | – | 10.09 | EC50 fold greater than CRH [1, 5]: 10 fold |
